According to ChEMBL document CHEMBL1201862, “PubChem BioAssay data set” (2004):
The source made the active and inactive calls.

How the values were obtained:
[1] = alpha-synuclein stem-loop luciferase translation blockers – H4 neuroglioma cells, luminescence, confirmation (AID 1988); type: functional, cell-based
[2] = luciferase reporter signal suppression in cells – H4 neuroglioma cells, luminescence, dose response (AID 1990); type: functional, cell-based
Paired box protein Pax-8 = Paired box protein Pax-8 (Homo sapiens, UniProt Q06710); assay: PAX8 transcriptional activity inhibition in RMG-I – RMG-I cells, luciferase, cherry-pick, dose response (AID 687027); type: functional, cell-based;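 also: luciferase reporter driven by Pax8 target thyroperoxidase promoter measured by SteadyGlo luminescence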
[3] = Fluorescence-based cell-based high throughput dose response assay for inhibitors of the interaction of nucleotide-binding oligomerization domain containing 2 (NOD2) and the receptor-interacting serine-threonine kinase 2 (RIPK2).; type: functional; conditions: Homo sapiens
[4] = general mammalian cell viability loss – inhibitor set, cherry-pick, set 2, cytotoxicity control for miR-122 modulator project, dose response (AID 720697); type: functional, cell-based
[5] = general mammalian cell viability loss – activator set, cherry-pick, cytotoxicity control for miR-122 modulator project, dose response (AID 720690); type: functional, cell-based;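 also: HEK293T human cells scored for general mammalian cytotoxicity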
[6] = biological target: Apoptotic protease-activating factor 1 (Homo sapiens, UniProt O14727); type: functional
[7] = biological target: T1, Zinc finger protein mex-5 (Caenorhabditis elegans, UniProt Q9XUB2); assay: potency of MEX-5 RNA-binding blockers – biochemical, C. elegans, fluorescence polarization, dose response (AID 1960)
T1 sequence (Q9XUB2 whole entry): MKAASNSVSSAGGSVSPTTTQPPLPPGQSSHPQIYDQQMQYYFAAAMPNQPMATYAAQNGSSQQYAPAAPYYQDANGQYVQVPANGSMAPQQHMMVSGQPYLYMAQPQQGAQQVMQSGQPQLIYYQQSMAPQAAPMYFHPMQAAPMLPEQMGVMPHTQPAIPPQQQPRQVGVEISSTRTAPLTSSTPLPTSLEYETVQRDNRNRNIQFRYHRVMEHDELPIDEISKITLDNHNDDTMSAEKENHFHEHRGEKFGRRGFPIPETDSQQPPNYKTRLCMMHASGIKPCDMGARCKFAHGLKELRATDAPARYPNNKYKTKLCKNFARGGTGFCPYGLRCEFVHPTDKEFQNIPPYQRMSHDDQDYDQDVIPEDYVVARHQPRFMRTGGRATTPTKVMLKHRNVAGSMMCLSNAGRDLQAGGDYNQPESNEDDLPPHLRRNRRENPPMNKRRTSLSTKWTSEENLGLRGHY

[8] = biological target: T2, Sentrin-specific protease 8 (Homo sapiens, UniProt Q96LD8); type: functional
T2 sequence (Q96LD8 whole entry): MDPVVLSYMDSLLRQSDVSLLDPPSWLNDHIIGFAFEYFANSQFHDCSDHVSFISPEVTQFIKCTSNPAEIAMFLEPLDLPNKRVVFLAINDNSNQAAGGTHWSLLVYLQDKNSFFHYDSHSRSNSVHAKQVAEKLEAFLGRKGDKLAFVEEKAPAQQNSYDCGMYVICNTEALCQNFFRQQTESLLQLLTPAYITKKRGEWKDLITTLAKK

[9] = biological target: T3, RNA-binding protein pos-1 (Caenorhabditis elegans, UniProt G5EF15); assay: disruptors of C. elegans POS-1 RNA interaction – biochemical, fluorescence polarization, dose response (AID 1964);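 also: purified POS-1 fused to maltose binding protein made in E. coli; potency of compounds blocking POS-1 binding to fluorescent RNA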
T3 sequence (G5EF15 whole entry): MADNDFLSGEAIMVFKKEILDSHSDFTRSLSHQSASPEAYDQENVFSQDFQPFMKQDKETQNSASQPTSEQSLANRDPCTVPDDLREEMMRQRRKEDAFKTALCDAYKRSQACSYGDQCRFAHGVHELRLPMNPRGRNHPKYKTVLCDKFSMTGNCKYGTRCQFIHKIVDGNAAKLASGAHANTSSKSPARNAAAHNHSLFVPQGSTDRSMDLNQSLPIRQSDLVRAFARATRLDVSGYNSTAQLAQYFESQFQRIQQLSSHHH

[10] = biological target: Voltage-gated N-type calcium channel alpha-1B subunit/Amyloid beta A4 precursor protein-binding family A member 1 (Homo sapiens, UniProt Q00975+Q02410); type: protein assay
SUMO-activating enzyme = SUMO-activating enzyme (Homo sapiens, UniProt Q9UBT2); assay: blockers of SAE1/SAE2–UBC9 SUMO transfer – biochemical, HTRF, uHTS, primary screen (AID 2006); type: protein-complex assay
[11] = biological target: T4, Long-chain-fatty-acid--AMP ligase FadD28 (Mycobacterium tuberculosis, UniProt P9WQ59); assay: Fluorescence polarization aasay to screen for inhibitors that compete for the binding of FadD28 to a bisubstrate Measured in Biochemical System Using Plate Reader - 2147-01_Inhibitor_Dose_CherryPick_Activity.; type: functional, Mycobacterium tuberculosis H37Rv
T4 sequence (P9WQ59 whole entry): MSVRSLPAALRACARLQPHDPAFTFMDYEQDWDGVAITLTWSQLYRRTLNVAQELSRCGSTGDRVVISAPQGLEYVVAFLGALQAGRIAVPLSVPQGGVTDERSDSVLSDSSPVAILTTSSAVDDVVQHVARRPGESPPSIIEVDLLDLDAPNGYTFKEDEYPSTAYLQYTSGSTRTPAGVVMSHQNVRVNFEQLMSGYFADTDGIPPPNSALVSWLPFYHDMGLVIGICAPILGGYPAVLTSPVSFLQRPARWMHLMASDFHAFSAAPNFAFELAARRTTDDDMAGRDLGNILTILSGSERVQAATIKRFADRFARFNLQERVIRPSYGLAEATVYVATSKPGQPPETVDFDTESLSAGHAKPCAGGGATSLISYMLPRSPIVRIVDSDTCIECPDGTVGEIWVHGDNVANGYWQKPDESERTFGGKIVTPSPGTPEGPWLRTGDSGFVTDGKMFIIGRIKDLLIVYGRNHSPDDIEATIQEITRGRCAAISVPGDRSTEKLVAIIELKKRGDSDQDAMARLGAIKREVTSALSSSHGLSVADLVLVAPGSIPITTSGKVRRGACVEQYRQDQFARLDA

Chain of SUMO-activating enzyme (Q9UBE0 whole entry): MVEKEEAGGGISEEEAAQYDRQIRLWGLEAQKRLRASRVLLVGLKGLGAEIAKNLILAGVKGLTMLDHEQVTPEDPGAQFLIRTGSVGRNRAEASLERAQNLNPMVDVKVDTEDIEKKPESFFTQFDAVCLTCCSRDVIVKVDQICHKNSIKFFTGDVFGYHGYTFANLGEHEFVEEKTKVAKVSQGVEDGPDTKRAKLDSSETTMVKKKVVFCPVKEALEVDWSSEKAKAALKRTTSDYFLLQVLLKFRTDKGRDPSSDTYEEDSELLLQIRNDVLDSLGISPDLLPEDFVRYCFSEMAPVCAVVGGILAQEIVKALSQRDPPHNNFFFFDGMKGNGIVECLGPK
Chain of SUMO-activating enzyme (Q9UBT2 whole entry): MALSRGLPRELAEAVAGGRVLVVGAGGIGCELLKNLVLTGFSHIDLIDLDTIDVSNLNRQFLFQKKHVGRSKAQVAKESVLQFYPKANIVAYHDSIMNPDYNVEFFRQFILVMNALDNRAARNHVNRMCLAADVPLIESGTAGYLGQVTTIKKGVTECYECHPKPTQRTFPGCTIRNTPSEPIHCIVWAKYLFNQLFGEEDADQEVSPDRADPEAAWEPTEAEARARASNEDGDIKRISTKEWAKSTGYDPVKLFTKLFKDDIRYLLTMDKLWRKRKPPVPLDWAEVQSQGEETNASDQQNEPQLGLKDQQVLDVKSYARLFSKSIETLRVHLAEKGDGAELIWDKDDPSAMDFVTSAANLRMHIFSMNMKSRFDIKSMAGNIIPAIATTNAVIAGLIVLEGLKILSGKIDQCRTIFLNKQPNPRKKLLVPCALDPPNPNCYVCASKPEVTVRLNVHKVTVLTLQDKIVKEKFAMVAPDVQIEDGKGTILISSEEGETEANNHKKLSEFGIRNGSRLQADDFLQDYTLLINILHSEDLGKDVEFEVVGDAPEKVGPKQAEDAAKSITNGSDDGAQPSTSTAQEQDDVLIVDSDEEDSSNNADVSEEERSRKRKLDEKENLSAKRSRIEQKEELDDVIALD
Chain of Apoptotic protease-activating factor 1 (O14727 whole entry): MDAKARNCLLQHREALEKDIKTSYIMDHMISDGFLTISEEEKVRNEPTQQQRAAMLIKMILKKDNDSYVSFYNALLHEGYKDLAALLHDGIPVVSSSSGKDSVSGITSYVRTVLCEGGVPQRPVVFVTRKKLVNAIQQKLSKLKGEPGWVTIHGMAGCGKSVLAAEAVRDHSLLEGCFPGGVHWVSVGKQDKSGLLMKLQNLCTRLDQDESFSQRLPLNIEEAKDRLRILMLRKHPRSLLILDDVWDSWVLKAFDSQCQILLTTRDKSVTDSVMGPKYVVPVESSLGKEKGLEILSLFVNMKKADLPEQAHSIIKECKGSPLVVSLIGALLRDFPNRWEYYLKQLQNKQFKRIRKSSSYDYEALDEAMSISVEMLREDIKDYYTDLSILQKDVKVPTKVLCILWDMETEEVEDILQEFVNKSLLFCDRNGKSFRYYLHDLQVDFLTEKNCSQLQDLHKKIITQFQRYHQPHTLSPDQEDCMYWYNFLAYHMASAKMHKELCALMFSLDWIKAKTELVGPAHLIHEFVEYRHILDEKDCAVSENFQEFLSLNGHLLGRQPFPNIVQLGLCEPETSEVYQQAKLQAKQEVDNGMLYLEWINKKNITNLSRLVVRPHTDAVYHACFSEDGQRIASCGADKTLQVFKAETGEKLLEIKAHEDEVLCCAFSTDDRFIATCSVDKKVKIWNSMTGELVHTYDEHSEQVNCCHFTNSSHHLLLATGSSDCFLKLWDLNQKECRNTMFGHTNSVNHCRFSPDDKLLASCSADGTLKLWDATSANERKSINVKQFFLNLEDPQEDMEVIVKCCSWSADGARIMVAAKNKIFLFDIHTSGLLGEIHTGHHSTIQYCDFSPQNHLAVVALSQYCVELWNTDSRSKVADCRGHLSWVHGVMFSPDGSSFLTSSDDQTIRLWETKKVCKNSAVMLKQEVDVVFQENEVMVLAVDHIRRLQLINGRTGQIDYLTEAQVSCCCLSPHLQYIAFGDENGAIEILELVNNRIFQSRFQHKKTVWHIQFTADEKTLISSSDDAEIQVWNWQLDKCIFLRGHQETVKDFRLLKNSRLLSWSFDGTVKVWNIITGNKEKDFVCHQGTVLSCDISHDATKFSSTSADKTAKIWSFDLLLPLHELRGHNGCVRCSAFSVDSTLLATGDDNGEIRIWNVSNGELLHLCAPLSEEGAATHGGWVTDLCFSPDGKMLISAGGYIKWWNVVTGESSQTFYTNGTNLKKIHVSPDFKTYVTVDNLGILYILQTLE
Chain of Paired box protein Pax-8 (Q06710 whole entry, the tested form may be a part): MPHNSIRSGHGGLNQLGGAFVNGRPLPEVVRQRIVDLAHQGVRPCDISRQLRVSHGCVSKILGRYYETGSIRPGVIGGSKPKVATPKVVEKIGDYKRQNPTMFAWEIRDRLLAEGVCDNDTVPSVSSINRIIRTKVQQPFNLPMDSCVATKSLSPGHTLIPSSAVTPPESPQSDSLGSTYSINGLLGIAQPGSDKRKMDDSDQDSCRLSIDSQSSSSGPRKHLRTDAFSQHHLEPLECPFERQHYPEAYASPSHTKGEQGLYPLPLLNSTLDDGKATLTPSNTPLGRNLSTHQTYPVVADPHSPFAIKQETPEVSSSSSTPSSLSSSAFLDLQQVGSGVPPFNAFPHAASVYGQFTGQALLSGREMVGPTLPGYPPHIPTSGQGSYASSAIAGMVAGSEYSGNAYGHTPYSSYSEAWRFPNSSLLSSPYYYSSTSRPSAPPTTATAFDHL

O=C(Nc1cccc(NC(=O)c2ccccc2Cl)c1)c1ccc([N+](=O)[O-])o1
EC50 [1]: 8.12 µM (active)
EC50 [2]: 8.33 µM (active)
AC50 (Paired box protein Pax-8): 2.48 µM (active)

COc1ccc(CC2=CC(=O)c3ccccc3C2=O)cc1
IC50 [3]: 4.12 µM (active)
AC50 [4]: 10.2 µM (active)
AC50 [5]: 5.27 µM (active)

c1coc(-c2nnc(-c3ccco3)nn2)c1
IC50 [6]: 15.8 µM (active)
EC50 [7]: 7.69 µM (active)
IC50 [8]: 9.28 µM (active)
EC50 [9]: 7.92 µM (inconclusive)
IC50 [10]: 1.66 µM (active)
IC50 (SUMO-activating enzyme): 6.47 µM (active)

Cn1c(O)c(/C=N/NC(=O)c2cc3ccccc3cc2O)c2ccccc21
AC50 [11]: > 100 µM (inactive)
